Source: ChEMBL document CHEMBL3885861, “Open TG-GATES”

Organism: Rattus norvegicus
Test: Open TG-GATES - Regimen: Daily Repeat
Type: toxicity, organism-based, Sprague-Dawley
Design: regimen Daily Repeat, gender Male, age 6 weeks
Conditions: in vivo, po, 0 mg/kg, route gavage, dose level Control; for APTT / Bas / Eos / Fbg / Hb / Ht / Lym / MCHC / MCV / Mono / Neu / PT / Plat / RBC / Ret / WBC: tissue Blood; for KIDNEY_L / KIDNEY_R / KIDNEY_TOTAL: tissue Kidney; for LIVER: tissue Liver; for ALP / ALT / AST / BUN / CRE / Ca / Cl / DBIL / GLC / IP / K / LDH / Na / PL / RALB / TBIL / TG / TP / gamma-GTP: tissue Plasma

## CN(C)C(=N)N=C(N)N [METFORMIN]
72 h, time 3 day
  TERMINAL_BW: 224.4 g
  APTT: 16.8 s
  Bas: 0.2%
  Eos: 1%
  Fbg: 246.8 mg/dL
  Hb: 13.1 g/dL
  Ht: 38.7%
  Lym: 75.4%
  MCHC: 34%
  MCV: 64.1 fL
  Mono: 3.4%
  Neu: 19.6%
  PT: 12.6 s
  Plat: 121.6 x10_4/uL
  RBC: 603.2 x10_4/ul
  Ret: 6.9%
  WBC: 114.3 x10_2/uL
  KIDNEY_L: 1 g
  KIDNEY_R: 1 g
  KIDNEY_TOTAL: 2 g
  LIVER: 10.6 g
  ALP: 1345.6 IU/L
  ALT: 69.8 IU/L
  AST: 80.6 IU/L
  BUN: 13 mg/dL
  CRE: 0.2 mg/dL
  Ca: 11 mg/dL
  Cl: 104.6 meq/L
  DBIL: 0.014 mg/dL
  GLC: 184.8 mg/dL
  IP: 8.5 mg/dL
  K: 4 meq/L
  LDH: 69.8 IU/L
  Na: 140.8 meq/L
  PL: 143.6 mg/dL
  RALB: 2.5 g/dL
  TBIL: 0.034 mg/dL
  TG: 71.2 mg/dL
  TP: 5.5 g/dL
  gamma-GTP: 1 IU/L
[…], time 7 day
  TERMINAL_BW: 255.4 g
  APTT: 16.6 s
  Bas: 0%
  Eos: 1.2%
  Fbg: 272.8 mg/dL
  Hb: 13.6 g/dL
  Ht: 40.1%
  Lym: 77.8%
  MCHC: 34%
  MCV: 64.1 fL
  Mono: 3%
  Neu: 17.6%
  PT: 12 s
  Plat: 126.8 x10_4/uL
  RBC: 626.4 x10_4/ul
  Ret: 6%
  WBC: 90.7 x10_2/uL
  KIDNEY_L: 1 g
  KIDNEY_R: 1 g
  KIDNEY_TOTAL: 2.1 g
  LIVER: 11.7 g
  ALP: 1433.2 IU/L
  ALT: 43.2 IU/L
  AST: 69.6 IU/L
  BUN: 16.4 mg/dL
  CRE: 0.2 mg/dL
  Ca: 11.3 mg/dL
  Cl: 105.2 meq/L
  DBIL: 0.014 mg/dL
  GLC: 187 mg/dL
  IP: 7.8 mg/dL
  K: 4.3 meq/L
  LDH: 66.6 IU/L
  Na: 141.4 meq/L
  PL: 145.2 mg/dL
  RALB: 2.7 g/dL
  TBIL: 0.034 mg/dL
  TG: 91 mg/dL
  TP: 5.9 g/dL
  gamma-GTP: 1 IU/L
[…], time 14 day
  TERMINAL_BW: 310.2 g
  APTT: 18.3 s
  Bas: 0%
  Eos: 0.8%
  Fbg: 252.2 mg/dL
  Hb: 14.1 g/dL
  Ht: 40.7%
  Lym: 77.8%
  MCHC: 34.5%
  MCV: 60.5 fL
  Mono: 3.4%
  Neu: 17.4%
  PT: 12.3 s
  Plat: 123 x10_4/uL
  RBC: 674 x10_4/ul
  Ret: 4.8%
  WBC: 104.1 x10_2/uL
  KIDNEY_L: 1.2 g
  KIDNEY_R: 1.2 g
  KIDNEY_TOTAL: 2.4 g
  LIVER: 14.4 g
  ALP: 1342.2 IU/L
  ALT: 43.2 IU/L
  AST: 81 IU/L
  BUN: 16.4 mg/dL
  CRE: 0.2 mg/dL
  Ca: 11 mg/dL
  Cl: 105.2 meq/L
  DBIL: 0.014 mg/dL
  GLC: 188.2 mg/dL
  IP: 7.1 mg/dL
  K: 4 meq/L
  LDH: 168 IU/L
  Na: 142.8 meq/L
  PL: 150.6 mg/dL
  RALB: 2.7 g/dL
  TBIL: 0.034 mg/dL
  TG: 139.2 mg/dL
  TP: 6 g/dL
  gamma-GTP: 1 IU/L
[…], time 28 day
  TERMINAL_BW: 386.6 g
  APTT: 17.2 s
  Bas: 0.2%
  Eos: 1.4%
  Fbg: 260 mg/dL
  Hb: 15 g/dL
  Ht: 43.2%
  Lym: 78.6%
  MCHC: 34.7%
  MCV: 56.9 fL
  Mono: 2.6%
  Neu: 16.8%
  PT: 12.1 s
  Plat: 103.4 x10_4/uL
  RBC: 759.6 x10_4/ul
  Ret: 2.5%
  WBC: 118 x10_2/uL
  KIDNEY_L: 1.4 g
  KIDNEY_R: 1.4 g
  KIDNEY_TOTAL: 2.8 g
  LIVER: 15.6 g
  ALP: 1085 IU/L
  ALT: 41.8 IU/L
  AST: 60.8 IU/L
  BUN: 16 mg/dL
  CRE: 0.2 mg/dL
  Ca: 11.1 mg/dL
  Cl: 105.4 meq/L
  DBIL: 0.014 mg/dL
  GLC: 176.2 mg/dL
  IP: 6.6 mg/dL
  K: 3.9 meq/L
  LDH: 51.8 IU/L
  Na: 145 meq/L
  PL: 143.4 mg/dL
  RALB: 2.7 g/dL
  TBIL: 0.036 mg/dL
  TG: 134.2 mg/dL
  TP: 6.1 g/dL
  gamma-GTP: 1 IU/L
